From patent US5232684A, “Labelled resiniferatoxin, compositions thereof, and methods for using the same” (priority 1990, dated 1993)

Legend:
Sprague-Dawley rats = test: Induction of ear edema in Sprague-Dawley rats; format: in vivo, rat; details: 2×10^-7 g/ear
Source text: [^3 H]RTX (37 Ci/mmol) is synthesized by esterification of resiniferonol 9,13,14-orthophenylacetate (Chemicals for Cancer Research, Inc., Chaska, MN) at the C20 position with [^3 H]homovanillic acid (Chemical Synthesis and Analysis Laboratory, NCI-FCRF, Frederick, MD). The labelled compound is purified on HPLC and cochromatographed with authentic RTX (Chemicals for Cancer Research, Inc., Chaska, MN). The biological activity of [^3 H]RTX is confirmed in 2 assays: induction of hypothermia in CD-1 mice (10^-5 g/kg s.c.) and induction of ear edema in Sprague-Dawley rats (2×10^-7 g/ear).

rat cerebellum = test: [^3H]RTX binding to rat cerebellum
[1] = target: T1, capsaicin receptor (rat Gasser ganglia) (Rattus norvegicus, UniProt O35433); test: biochemical; format: binding; details: rat Gasser ganglia
T1 construct: from tissue; host or cells: Gasser ganglia of female Sprague-Dawley rats
T1 sequence (O35433 whole entry): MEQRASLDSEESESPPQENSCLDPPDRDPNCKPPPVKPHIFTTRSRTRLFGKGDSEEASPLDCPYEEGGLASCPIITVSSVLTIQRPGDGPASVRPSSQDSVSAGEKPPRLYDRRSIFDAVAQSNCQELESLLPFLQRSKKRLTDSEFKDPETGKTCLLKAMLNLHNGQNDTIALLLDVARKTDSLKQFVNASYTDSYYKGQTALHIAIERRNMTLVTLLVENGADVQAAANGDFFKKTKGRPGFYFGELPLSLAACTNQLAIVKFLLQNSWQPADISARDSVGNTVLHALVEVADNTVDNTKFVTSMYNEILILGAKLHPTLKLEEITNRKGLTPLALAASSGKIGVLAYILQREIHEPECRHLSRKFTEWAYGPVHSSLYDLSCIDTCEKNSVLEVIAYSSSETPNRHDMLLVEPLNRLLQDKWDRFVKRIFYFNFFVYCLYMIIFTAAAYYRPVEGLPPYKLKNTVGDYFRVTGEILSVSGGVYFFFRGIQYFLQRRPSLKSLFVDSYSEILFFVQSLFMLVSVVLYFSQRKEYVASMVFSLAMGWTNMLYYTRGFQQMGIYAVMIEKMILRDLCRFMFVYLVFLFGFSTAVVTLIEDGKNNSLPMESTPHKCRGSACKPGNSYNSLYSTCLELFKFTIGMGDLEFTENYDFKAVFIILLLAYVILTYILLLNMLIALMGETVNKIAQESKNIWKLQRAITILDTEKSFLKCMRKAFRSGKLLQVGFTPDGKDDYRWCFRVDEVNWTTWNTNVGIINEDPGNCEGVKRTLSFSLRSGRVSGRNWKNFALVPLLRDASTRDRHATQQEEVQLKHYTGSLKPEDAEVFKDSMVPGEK
Protocol: Membrane preparations are obtained from the DRG and Gasser ganglia of female Sprague-Dawley rats (250-300 g); animals are sacrificed by decapitation under ether anesthesia, the ganglia removed and collected into ice-cold disrupting buffer (5 mM KCl, 5.8 mM NaCl, 2 mM MgCl2, 12 mM glucose, 137 mM sucrose, 10 mM HEPES, 5 mM DTT, 2 mM EGTA, pH 7.4). After homogenization with the aid of a Polytron tissue homogenizer, samples are filtered over surgical gauze and then washed twice with the same buffer and stored at -70° C. Particulate fractions are obtained from other rat neural tissues (cerebellum, spinal cord, preoptic region, striatum, substantia nigra) and from DRG of pigs (Mt. Airy Locker Co., Mt. Airy, MD), sheep, cows (kindly provided by Dr. Solomon, USDA, Beltsville, MD), and chickens (Truslow Farms, Chesterton, MD) by a similar procedure.
(§1) The binding assays are carried out in a volume of 250 ul, containing assay buffer (same as the disrupting buffer but omitting DTT and EGTA and including 0.75 mM CaCl2), 26-30 ug of membrane protein and 0.25 mg/ml bovine serum albumin. […] Tubes are kept on ice while the additions are made. The assay mixture is incubated for 10 min at 37° C.; it is then cooled on ice. 150 ul of the mixture is pipetted onto Whatman GF/C or GF/F glass fiber filters presoaked with 10 mg/ml bovine serum albumin in 20 mM Tris-Cl (pH 7.4) and filtered immediately. An aliquot of 50 ul of the mixture is removed to determine total radioactivity. The filters are washed with 100 ml of ice-cold 20 mM Tris-Cl, pH 7 4, containing 0.1 mg/ml bovine serum albumin, and the bound radioactivity is determined by scintillation counting. Non-specific binding is determined in the presence of 100-1000 nM non-radioactive RTX.
Binding data from saturation experiments using increasing concentrations of hot ligand are analyzed using the collection of computer programs described by McPherson (McPherson, G.A., Analysis of radioligand binding experiments: a collection of computer programs for the IBM PC, J.Pharmacol.Methods, 14 (1985) 213-228).
Scatchard and Hill transformations are performed by the Equilibrium Binding Data Analysis program referred to as EBDA. Data are further analyzed by the curvilinear regression program LIGAND (Munson, R.J. and Rodbard, D., LIGAND: a versatile computerized approach for characterization of ligand-binding systems, Anal.Biochem, 107 (1980) 220-239).
RTX binding is also analyzed in the presence of a fixed, low (60 pM or 300 pM) concentration of [^3 H]RTX and increasing concentrations of non-radioactive RTX or other ligand. […] The Ki value for RTX is calculated from the relationship Ki =ID50 -L; the Ki values for other ligands are calculated from the general form of the equation (Cheng, Y.C. and Prusoff, W.H., Relation between the inhibition constant (Ki) and the concentration of inhibitor which causes 50 per cent inhibition (I50) of an enzymatic reaction, Biochem. Pharmacol., 22 (1973) 3099-3108) Ki =IC50 /(1+L/Kd) where L=concentration of labelled ligand and Kd =dissociation constant of radioactive ligand as determined in the saturation experiments using variable concentrations of hot ligand. Comparison of the quality of fit using single and multiple site competition models is performed by the LIGAND program.
Gasser ganglia represents the […] homolog of the dorsal root ganglia.

[2] = target: T2, capsaicin receptor (dorsal horn from pig spinal cord) (Sus scrofa, UniProt F1RLJ0); test: Binding to membrane preparations from dissected dorsal horn of pig spinal cord
T2 construct: membrane preparations from dissected dorsal horn from pig spinal cord; from tissue; host or cells: dissected dorsal horn of pig spinal cord
T2 sequence (F1RLJ0 1-841): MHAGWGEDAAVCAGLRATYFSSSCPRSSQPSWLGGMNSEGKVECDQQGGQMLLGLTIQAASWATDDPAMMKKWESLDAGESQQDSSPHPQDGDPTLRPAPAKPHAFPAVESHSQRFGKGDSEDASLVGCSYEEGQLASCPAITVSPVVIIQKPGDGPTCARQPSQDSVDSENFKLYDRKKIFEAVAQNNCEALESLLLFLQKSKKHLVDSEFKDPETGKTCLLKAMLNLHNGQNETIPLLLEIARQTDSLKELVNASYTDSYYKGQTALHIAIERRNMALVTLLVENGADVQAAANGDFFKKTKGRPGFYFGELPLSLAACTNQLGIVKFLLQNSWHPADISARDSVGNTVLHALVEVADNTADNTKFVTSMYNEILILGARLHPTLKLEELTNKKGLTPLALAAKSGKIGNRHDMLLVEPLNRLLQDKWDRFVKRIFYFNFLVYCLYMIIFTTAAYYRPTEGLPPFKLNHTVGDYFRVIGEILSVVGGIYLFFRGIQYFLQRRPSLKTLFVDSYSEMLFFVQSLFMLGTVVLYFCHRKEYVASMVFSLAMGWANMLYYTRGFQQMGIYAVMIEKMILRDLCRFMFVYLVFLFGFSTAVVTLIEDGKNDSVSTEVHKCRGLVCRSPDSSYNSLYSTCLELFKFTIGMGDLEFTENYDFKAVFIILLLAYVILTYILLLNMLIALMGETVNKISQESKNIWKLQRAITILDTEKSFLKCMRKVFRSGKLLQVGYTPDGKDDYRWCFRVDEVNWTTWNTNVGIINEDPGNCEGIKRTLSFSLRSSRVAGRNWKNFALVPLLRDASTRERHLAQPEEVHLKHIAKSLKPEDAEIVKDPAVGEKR
Protocol: as §1, with “RTX. Under these conditions approximately 30% of the non-specific binding is due to sticking of [^3 H]RTX to the filters. The remainder presumably reflects partitioning into the lipid phase of the membranes, as had been observed previously for typical phorbol esters (Driedger, P.E. and Blumberg, P.M., Specific binding of phorbol ester tumor promoters, Proc. Natl. Acad. Sci. U.S.A., 77 (1980) 567-571). […]” for “RTX.”
Alternatively, binding can be measured to membrane preparations from dissected dorsal horn from pig spinal cord. […]

[3] = target: T3, capsaicin receptor (rat DRG) (Rattus norvegicus, UniProt O35433); test: RTX binding in DRG preparations after in vivo RTX treatment
T3 construct: homotetramer
T3 sequence (O35433 whole entry): as the sequence (O35433 whole entry) above

## C=C(C)[C@]12C[C@@H](C)[C@@]34O[C@](Cc5ccccc5)(O[C@@H]1[C@@H]3C=C(COC(=O)Cc1ccc(O)c(OC)c1)C[C@]1(O)C(=O)C(C)=C[C@@H]41)O2 [[^3 H]RTX, [^3 H]resiniferatoxin]
Sprague-Dawley rats
  biological activity: induction of ear edema: confirmed
Rat cerebellum
  specific binding: no specific binding
[1]
  Hill coefficient: 0.87
[1]; 3 separate experiments, LIGAND
  Bmax: 90 fmol/mg
  Kd: 0.13 nM
[2]
  % specific binding: 90%
  Kd: 0.1 nM
[3]
  [^3H]RTX binding sites in neonatally treated animals: very significant loss
